Assay: gradient 5% acetonitrile 3 min, to 50% in 2 min, to 85% in 15 min, held 3 min, 100 µL/min
Settings: column: Zorbax Extend-C18 2.1 x 50 mm; eluents: water / acetonitrile, 0.1% formic acid
In short: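 Standards, all pure, were combined into mixtures of ~100 molecules and run at 100 μL/min on a Zorbax Extend-C18 column (2.1 × 50 mm, 1.8 μm) with water and acetonitrile, each containing 0.1% formic acid. A coupled quadrupole time-of-flight mass spectrometer operated in positive and negative ionization mode. Retention time values come from computationally picked adduct peaks, each inspected manually.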
With `CCOc1ccc(-c2nc(-c3ccc(NS(=O)(=O)c4cccs4)cc3)no2)cc1` the RP-LC retention time was 1170 s. Molecule `CCOc1ccc(CCNC(=O)c2c(C)oc3nc(C)nc(N4CCCC4)c23)cc1` has an RP-LC retention time of 697 s. Molecule `COc1ccc(S(=O)(=O)c2csc3c2NC(=O)CC3c2ccsc2)cc1` (configuration not stated) has an RP-LC retention time of 892 s. In the case of `CC1CCN(c2ccc(-c3noc(CN(C)C4CCCCC4)n3)cn2)CC1`, the RP-LC retention time is reported as 720 s. With `CCCNC(=O)C1CCCN(c2nc3ncn(CC(=O)Nc4cccc(C(C)C)c4)c(=O)c3s2)C1` (configuration not stated) the RP-LC retention time was 802 s. Molecule `CCCS(=O)(=O)N(C)C1CCc2nn(Cc3ccccc3)c(=O)n2CC1` (configuration not stated) has an RP-LC retention time of 755 s. With `O=C(NCc1cc(F)ccc1F)C1CCN(c2cncnc2N2CCOCC2)CC1` the RP-LC retention time was 619 s. `Cc1cc(NC(=O)CCS(=O)(=O)c2ccc(F)cc2)n(-c2nc3ccccc3s2)n1` gave an RP-LC retention time of 1030 s. With `Cn1cccc1C(=O)NCCn1c(=O)n(Cc2ccccc2)c2cccnc21` the RP-LC retention time was 767 s. Molecule `O=C(NCc1cccnc1)C1CCN(C(=O)c2ncn3c2COC(c2ccccc2)C3)CC1` (configuration not stated) has an RP-LC retention time of 568 s. With `CCn1cnc(S(=O)(=O)N2CCC(C(=O)Nc3ccc4c(c3)OCCO4)CC2)c1` the RP-LC retention time was 681 s. In the case of `Cn1c(C(=O)N2CCCC(C(=O)N3CCN(c4ccccn4)CC3)C2)cc2sccc21` (configuration not stated), the RP-LC retention time is reported as 614 s. `Cn1cccc1-c1noc(C2CCN(C(=O)c3ccoc3)C2)n1` (configuration not stated) gave an RP-LC retention time of 784 s. `COC(=O)c1ccccc1S(=O)(=O)N1CCc2c(c(-c3nnc(-c4ccccc4F)o3)nn2C)C1` gave an RP-LC retention time of 873 s. `Cc1nc(-c2cccc(NC(=O)c3cccc(F)c3)c2)cs1` gave an RP-LC retention time of 856 s. In the case of `O=C(CSc1nccn1Cc1ccco1)Nc1ccccc1F`, the RP-LC retention time is reported as 600 s. With `O=C(Cn1ccn2nc(-c3ccccc3)c(CO)c2c1=O)Nc1cccc(Br)c1` the RP-LC retention time was 868 s. `CCN(CCCNC(=O)C1CCCN(c2ncnc3c2nc2n3CCCCC2)C1)c1cccc(C)c1` (configuration not stated) gave an RP-LC retention time of 647 s. Work on `COc1ccccc1-c1noc(Cn2c(=O)n(CCc3ccccc3)c(=O)c3sccc32)n1` yielded an RP-LC retention time of 1030 s. Molecule `Cc1nc(-c2csc(S(=O)(=O)N3CCCC(C(=O)Nc4cccc(C#N)c4)C3)c2)no1` (configuration not stated) has an RP-LC retention time of 930 s. Work on `O=C(Cn1nc2n(c1=O)CCCC2)Nc1cccc(F)c1` yielded an RP-LC retention time of 638 s. In the case of `COc1ccc(-c2nc(NCc3ccc(C)o3)c3ccccc3n2)cc1`, the RP-LC retention time is reported as 784 s. Molecule `CN1C(=O)CCc2cc(NS(=O)(=O)Cc3cccc(Cl)c3)ccc21` has an RP-LC retention time of 751 s. Work on `CS(=O)(=O)N1CCC(N2C[C@H](Oc3ccccc3)[C@@H]2c2ccncc2)CC1` yielded an RP-LC retention time of 630 s. `O=C(NCCc1ccccn1)c1cccc(N2CCNC(c3ccccc3)C2)n1` (configuration not stated) showed an RP-LC retention time of 554 s. In the case of `O=C(NC1CCCC1)N1CC(Oc2ccccc2-c2nc(-c3ccccc3)no2)C1`, the RP-LC retention time is reported as 1010 s. Work on `COc1ccc(OC)c(NC(=O)c2cnc(-c3ccc(F)cc3)nc2-c2ccncc2)c1` yielded an RP-LC retention time of 915 s. `CCNC(=O)C1CCCN(c2nc3ncn(CC(=O)Nc4ccc(OCC)cc4)c(=O)c3s2)C1` (configuration not stated) gave an RP-LC retention time of 688 s. `O=C(CCc1conc1-c1ccc(F)cc1)NCc1ccccc1` showed an RP-LC retention time of 865 s. For `CSc1nc(N2CCCC2)c2cnn(CCNC(=O)CSc3nnnn3C)c2n1`, the RP-LC retention time was 651 s. For `COCCNS(=O)(=O)c1cccc(-c2nc(-c3ccc(C)cc3)no2)c1`, the RP-LC retention time was 1060 s. Work on `COc1cc(OC)cc(-c2nnc(Cc3nc(-c4ccc(C)cc4)no3)o2)c1` yielded an RP-LC retention time of 1080 s. In the case of `CCc1nc2ccccc2c(=O)n1Cc1noc(/C=C/c2ccc(OC)cc2)n1`, the RP-LC retention time is reported as 1000 s. `Cc1cccc(C2CC(=O)c3cnc(N4CCN(c5ccccn5)CC4)nc3C2)c1` (configuration not stated) showed an RP-LC retention time of 737 s. `Cc1ccc(-n2cccc2CC(=O)NCc2ccc(N3CCOCC3)cc2)cc1` gave an RP-LC retention time of 877 s. For `O=C(NCC1CCCO1)C1CCCN(c2ccc(Sc3ccc(Br)cc3)nn2)C1` (configuration not stated), the RP-LC retention time was 793 s. Work on `CCOC(=O)c1[nH]c(C)c(CCC(=O)N2CCC(C(=O)NCCCc3ccccc3)CC2)c1C` yielded an RP-LC retention time of 842 s. `Clc1cc2c(c(CN3CCN(c4ccccc4)CC3)c1)OCOC2` gave an RP-LC retention time of 584 s. In the case of `Cc1cc(C)n(-c2ccnc(NCCc3cccnc3)n2)n1`, the RP-LC retention time is reported as 584 s. `CCc1ccc(S(=O)(=O)NCCOc2ccc(-c3ccco3)nn2)s1` gave an RP-LC retention time of 804 s. Molecule `CCOC(=O)CNC(=O)NCc1cccn1Cc1cc(C)ccc1C` has an RP-LC retention time of 888 s. Work on `COC(=O)c1c(-c2ccccc2)noc1NCc1ccccc1OC` yielded an RP-LC retention time of 1100 s. `Cc1ccc2c(Nc3cccc(C(C)C)c3)c(C(=O)N3CCC(C)CC3)cnc2n1` gave an RP-LC retention time of 737 s. Molecule `O=S(=O)(Cc1ccccc1)N1CCC(n2c(-c3ccco3)nc3cccnc32)C1` (configuration not stated) has an RP-LC retention time of 802 s. Molecule `CCC(=O)N(C1CCOCC1)C1CCN(Cc2cn(C)c3ccccc23)CC1` has an RP-LC retention time of 638 s. Molecule `CCn1cc(C)c(C(=O)O)c1CC(=O)N1CCC(c2ccccc2)C1` (configuration not stated) has an RP-LC retention time of 802 s. With `Cc1nc2cc(NC(=O)COc3ccccc3)ccc2s1` the RP-LC retention time was 771 s. In the case of `CCOc1cccc(CNC(=O)c2c(C)sc3ccn(CC)c(=O)c23)c1`, the RP-LC retention time is reported as 856 s. Work on `Cc1cc(=O)n(CC(=O)Nc2cc(F)ccc2F)c(N2CCCC2)n1` yielded an RP-LC retention time of 641 s. In the case of `COc1ccc(NC(=O)CSc2nccc(N3CCN(c4cccc(OC)c4)CC3)n2)cc1`, the RP-LC retention time is reported as 735 s. Work on `Cc1ccc(NC(=O)CCC2CCN(c3cc(NC4CC4)ncn3)CC2)cc1` yielded an RP-LC retention time of 692 s. `CCn1ccc(C(=O)NCC23CCC=C2N(CC2CC2)C(=O)CC3)n1` (configuration not stated) showed an RP-LC retention time of 770 s. `COc1ccc(C(=O)N2CCC3(C2)C(=O)Nc2ccccc23)cc1` (configuration not stated) showed an RP-LC retention time of 683 s. Molecule `O=C(NC1CCCCC1)c1ccc(CN2CCN(Cc3ccccc3)C(=O)C2=O)cc1` has an RP-LC retention time of 787 s. `Cc1noc(-c2ccc(NC(=O)c3cccs3)cc2)n1` showed an RP-LC retention time of 776 s. In the case of `CC1(C)C(=O)N(c2ccc(C#N)c(C(F)(F)F)c2)C(=O)N1CCCCO`, the RP-LC retention time is reported as 888 s. `O=S(=O)(NCCc1noc(-c2ccccc2)n1)c1cccs1` showed an RP-LC retention time of 849 s. For `O=C(Nc1ccc(F)cc1)C1CCCN(c2cnc3nccnc3c2)C1` (configuration not stated), the RP-LC retention time was 736 s. `Cc1[nH]c(C(=O)N2CCCC(C(=O)NCc3ccc4c(c3)OCO4)C2)c(C)c1C(=O)OC(C)C` (configuration not stated) showed an RP-LC retention time of 842 s. `COc1ccc(-n2c(=O)c(C(=O)Nc3ccccc3)c(O)c3cccnc32)cc1` showed an RP-LC retention time of 1200 s. For `CSc1cccc(NC(=O)Cn2c(=O)n(-c3cccc(C)c3)c(=O)c3c2cc(C)n3C)c1`, the RP-LC retention time was 920 s. `COc1ccc(S(=O)(=O)N2CCN(c3ccc(Nc4ccccn4)nn3)CC2)cc1C` gave an RP-LC retention time of 603 s. In the case of `CCC(C)NC(=O)C1CCC(=O)N(c2cc(OC)c(OC)c(OC)c2)C1c1ccc(OC)cc1` (configuration not stated), the RP-LC retention time is reported as 693 s. `O=C(c1ccc(-c2cccnc2)nc1)N1CCN(c2ccccc2)CC1` showed an RP-LC retention time of 663 s. In the case of `CCN1CCN(CCNC(=O)c2cc3n(n2)CCCN(Cc2cccc(C)c2)C3=O)CC1`, the RP-LC retention time is reported as 602 s. With `O=C(Nc1ccc(F)c(Cl)c1)c1cccn1Cc1noc(C2CC2)n1` the RP-LC retention time was 998 s. Work on `Cc1ccccc1NC(=O)NCCCn1c(C(F)(F)F)nc2cccnc21` yielded an RP-LC retention time of 761 s. `O=C(Nc1ccc2c(c1)OCO2)C1CCCN(S(=O)(=O)c2c[nH]c(C(=O)N3CCCC3)c2)C1` (configuration not stated) gave an RP-LC retention time of 747 s. For `CCOC(=O)c1oc2ccc(S(=O)(=O)N3CC4CN(C)CC(C3)O4)cc2c1C`, the RP-LC retention time was 649 s. With `Cc1cc2c(=O)n(CC(=O)Nc3ccc(C)c(Cl)c3)ccc2s1` the RP-LC retention time was 896 s. For `CCCN1C(=O)c2c(C(=O)NCCc3cccc(C)c3)ncn2CC1(C)C(=O)NC1CCCC1` (configuration not stated), the RP-LC retention time was 918 s. In the case of `O=C(CN1C(=O)C(O)(c2cccc(F)c2)c2ccccc21)NCCC1=CCCCC1` (configuration not stated), the RP-LC retention time is reported as 965 s. In the case of `CCOC(=O)N1CCN(C(=O)CCc2csc(NC(=O)c3ccc(F)cc3)n2)CC1`, the RP-LC retention time is reported as 713 s. Work on `CCOC(=O)C1CCCN(c2ccc(-n3nc(C)cc3C)nn2)C1` (configuration not stated) yielded an RP-LC retention time of 680 s. `CCOCCCNC(=O)c1c2c(cn(-c3ccc(F)cc3)c1=O)C(=O)CC(C)(C)C2` gave an RP-LC retention time of 859 s. `O=C(NC1CCCC1)N1CCC(OCc2ccccc2)C1` (configuration not stated) showed an RP-LC retention time of 834 s. With `CC1(C)CC(=O)c2cn(-c3ccc(Cl)cc3)c(=O)c(C(=O)O)c2C1` the RP-LC retention time was 907 s. In the case of `CCOc1ccc(-c2noc(Cn3c(=O)n(-c4ccccc4F)c(=O)c4sccc43)n2)cc1OC`, the RP-LC retention time is reported as 945 s. With `COc1cc(-c2nnc(COc3ccc(Cl)cc3Cl)o2)cc(OC)c1OC` the RP-LC retention time was 994 s. Work on `COc1ccc(CNC(=O)C2CCCN(c3nccnc3Sc3ccccc3)C2)c(OC)c1` (configuration not stated) yielded an RP-LC retention time of 1020 s. Work on `Cc1nc2cc(-c3noc(/C=C/c4ccco4)n3)ccc2n(C2CCCC2)c1=O` yielded an RP-LC retention time of 1280 s. `CN1CCN(C2CCN(C(=O)Nc3cc(Oc4ccc(NC(=O)C5(C(=O)Nc6ccc(F)cc6)CC5)c(F)c4)ccn3)CC2)CC1` showed an RP-LC retention time of 659 s. Molecule `CCc1nc2cc3c(cc2n1CC(=O)Nc1ccc2c(c1)OCCCO2)OCCO3` has an RP-LC retention time of 648 s. In the case of `CCOC(=O)C1=C(CNc2ccc(F)cc2F)NC(=O)NC1c1ccccc1` (configuration not stated), the RP-LC retention time is reported as 886 s. Molecule `CC(C)n1c(CCNC(=O)CCc2ccccc2)nc2cccnc21` has an RP-LC retention time of 716 s. Molecule `NC(=O)[C@@H]1C[C@H](Oc2cccnc2)CN1C(=O)c1cccs1` has an RP-LC retention time of 532 s. `O=C(c1ccsc1)N1CCCN(c2cc(-c3ccc4c(c3)OCO4)[nH]n2)CC1` showed an RP-LC retention time of 616 s.
